The results in this text go back to US6727287B2, “Toluene sulfonamide-containing anti-tumor composition and method of use thereof” (PTS International, Inc., priority 2001, dated 2004).

The test system of this data set is normal (i.e., non-neoplastic) cells. The data set is described as follows: Exposure of normal (non-neoplastic) cells to para-toluene sulfonamide. The settings on record: normal (non-neoplastic) cells exposed to the compound.

As for `Cc1ccc(S(N)(=O)=O)cc1` [para-toluene sulfonamide], the “histopathological changes in normal cells” value is given as “almost no histopathological changes”.
